These results are taken from patent publication US20130178597A1, “POLYIMIDE PRECURSOR, POLYIMIDE, AND MATERIALS TO BE USED IN PRODUCING SAME” (UBE INDUSTRIES, LTD., priority 2010, published 2013).

Data set [1] can be described thus: Light transmittance at 400 nm of a-BPDA powder, 10 mass % in 2 N aqueous sodium hydroxide. The data set is classed as physicochemical. The following applies: light path 1 cm.
Data set [2] in a line: Light transmittance at 400 nm of s-BPDA powder, 10 mass % in 2 N aqueous sodium hydroxide. The data set is classed as physicochemical. To be noted: light path 1 cm. How it is done: A predetermined amount of s-BPDA powder was dissolved in a 2 N aqueous solution of sodium hydroxide to obtain a 10 mass % aqueous solution. Using a MCPD-300 manufactured by Otsuka Electronics Co., Ltd., and a standard cell having a light path length of 1 cm, the light transmittance at 400 nm of the s-BPDA solution was measured using the 2 N aqueous solution of sodium hydroxide as a blank.

Data set [3] in a line: Solubility of s-BPDA at 25° C. in solvent. To be noted: s-BPDA in the solvent used in the example.
Protocol: The non-dissolved s-BPDA was filtered through filter paper 5A manufactured by Advantec, Inc. to obtain s-BPDA saturated solution. 5 g of the s-BPDA saturated solution was charged into an aluminum dish, heated for 1 hour at 80° C., and then heated for 1 hour at 200° C. The solubility was calculated by determining the mass of s-BPDA remaining in the saturated solution based on the residue after heating.
The nature of data set [4]: Light transmittance at 400 nm of i-BPDA powder, 10 mass % in 2 N aqueous sodium hydroxide. Format: physicochemical. The following applies: light path 1 cm. How it is done:
A predetermined amount of i-BPDA powder was dissolved in a 2 N aqueous solution of sodium hydroxide to obtain a 10 mass % aqueous solution. Using a MCPD-300 manufactured by Otsuka Electronics Co., Ltd., and a standard cell having a light path length of 1 cm, the light transmittance at 400 nm of the i-BPDA solution was measured using the 2 N aqueous solution of sodium hydroxide as a blank.

Data set [5] in a line: Solubility of i-BPDA at 25° C. in solvent. The data set is classed as physicochemical. To be noted: i-BPDA in the solvent used in the example.
Protocol: The non-dissolved i-BPDA was filtered through filter paper 5A manufactured by Advantec, Inc. to obtain i-BPDA saturated solution. 5 g of the i-BPDA saturated solution was charged into an aluminum dish, heated for 1 hour at 80° C., and then heated for 1 hour at 200° C. The solubility was calculated by determining the mass of i-BPDA remaining in the saturated solution based on the residue after heating.
Data set [6] is described as follows: Light transmittance at 400 nm of trans-1,4-diaminocyclohexane powder, 10 mass % in pure water. The data set is classed as physicochemical. To be noted: light path 1 cm. How it is done:
A predetermined amount of trans-1,4-diaminocyclohexane powder was dissolved in pure water to obtain a 10 mass % aqueous solution. Using a MCPD-300 manufactured by Otsuka Electronics Co., Ltd., and a standard cell having a light path length of 1 cm, the light transmittance at 400 nm of the trans-1,4-diaminocyclohexane solution was measured using pure water as a blank.

A short description of data set [7]: Light transmittance of solvent at 400 nm after heating with refluxing. The data set is classed as physicochemical. The following applies: heated to reflux for 3 hours under nitrogen atmosphere. How it is done: For light transmittance after heating with refluxing, measurement was carried out using a solvent that had been heated to reflux for 3 hours under nitrogen atmosphere having oxygen concentration of 200 ppm or less.

Data set [8] is described as follows: Light transmittance of solvent at 400 nm. Format: physicochemical. To be noted: light path 1 cm, water as a blank. The procedure:
Using a MCPD-300 manufactured by Otsuka Electronics Co., Ltd., and a standard cell having a light path length of 1 cm, the light transmittance of a solvent at 400 nm was measured using water as a blank.

Each structure is given as a SMILES string. Some results are limits rather than exact numbers.

In the case of `O=C1OC(=O)c2cc(-c3cccc4c3C(=O)OC4=O)ccc21` [Comparative Example C1, 2,3,3′,4′-Biphenyltetracarboxylic dianhydride, reference compound], the “light transmittance at 400 nm (a-BPDA powder)” value in data set [1] turned out to be 77%. Same read-out and setting: next, `O=C1OC(=O)c2cc(-c3cccc4c3C(=O)OC4=O)ccc21` [Comparative Example C2, 2,3,3′,4′-Biphenyltetracarboxylic dianhydride, reference compound]: 81%; `O=C1OC(=O)c2cc(-c3cccc4c3C(=O)OC4=O)ccc21` [Comparative Example C4, 2,3,3′,4′-Biphenyltetracarboxylic dianhydride, reference compound]: 84%. Take `O=C1OC(=O)c2cc(-c3ccc4c(c3)C(=O)OC4=O)ccc21` [Comparative Example D1, 3,3′,4,4′-Biphenyltetracarboxylic dianhydride, reference compound]: the “light transmittance of obtained s-BPDA powder at 400 nm” value in data set [2] came out at 75%. Regarding `O=C1OC(=O)c2cc(-c3ccc4c(c3)C(=O)OC4=O)ccc21` [Comparative Example D2, 3,3′,4,4′-Biphenyltetracarboxylic dianhydride, reference compound], the “light transmittance of obtained s-BPDA powder at 400 nm” value in data set [2] is listed as 75%. Besides, in data set [3], the “Solubility of used solvent at 25° C.” value is given as below 0.1 g/100 g. In the same order, the values of `O=C1OC(=O)c2cc(-c3ccc4c(c3)C(=O)OC4=O)ccc21` [Comparative Example D3, 3,3′,4,4′-Biphenyltetracarboxylic dianhydride, reference compound] are 75% and below 0.1 g/100 g. As for `O=C1OC(=O)c2cc(-c3ccc4c(c3)C(=O)OC4=O)ccc21` [Comparative Example D4, 3,3′,4,4′-Biphenyltetracarboxylic dianhydride, reference compound], the “light transmittance of obtained s-BPDA powder at 400 nm” value in data set [2] is listed as 72%.

For the molecule `O=C1OC(=O)c2cc(-c3ccc4c(c3)C(=O)OC4=O)ccc21` [Comparative Example D5, 3,3′,4,4′-Biphenyltetracarboxylic dianhydride, reference compound], the “light transmittance of obtained s-BPDA powder at 400 nm” value in data set [2] stood at 3%. Turning to `O=C1OC(=O)c2c1cccc2-c1cccc2c1C(=O)OC2=O` [Comparative Example F1, 2,2′,3,3′-Biphenyltetracarboxylic dianhydride, reference compound], the “Light Transmittance at 400 nm (i-BPDA)” value in data set [4] was determined as 79%.

For `O=C1OC(=O)c2c1cccc2-c1cccc2c1C(=O)OC2=O` [Comparative Example F2, 2,2′,3,3′-Biphenyltetracarboxylic dianhydride, reference compound], the “Solubility at 25° C.” value in data set [5] is given as below 0.1 g/100 g. Further, the “Light Transmittance at 400 nm (i-BPDA)” value in data set [4] is 79%. In the case of `O=C1OC(=O)c2c1cccc2-c1cccc2c1C(=O)OC2=O` [Comparative Example F3, 2,2′,3,3′-Biphenyltetracarboxylic dianhydride, reference compound], the “Light Transmittance at 400 nm (i-BPDA)” value in data set [4] was 66%. Regarding `O=C1OC(=O)c2cc(-c3cccc4c3C(=O)OC4=O)ccc21` [Example C1, 2,3,3′,4′-Biphenyltetracarboxylic dianhydride], in data set [1], the “light transmittance at 400 nm (a-BPDA powder)” value is 98%. The same measure, in the same setting: the value for `O=C1OC(=O)c2cc(-c3cccc4c3C(=O)OC4=O)ccc21` [Example C2, 2,3,3′,4′-Biphenyltetracarboxylic dianhydride] was 97%; that for `O=C1OC(=O)c2cc(-c3cccc4c3C(=O)OC4=O)ccc21` [Example C3, 2,3,3′,4′-Biphenyltetracarboxylic dianhydride] was 94%; that for `O=C1OC(=O)c2cc(-c3cccc4c3C(=O)OC4=O)ccc21` [Example C4, 2,3,3′,4′-Biphenyltetracarboxylic dianhydride] was 92%.

As to `O=C1OC(=O)c2cc(-c3cccc4c3C(=O)OC4=O)ccc21` [Example C5, 2,3,3′,4′-Biphenyltetracarboxylic dianhydride], in data set [1], the “light transmittance at 400 nm (a-BPDA powder)” value was 89%.

For the molecule `O=C1OC(=O)c2cc(-c3ccc4c(c3)C(=O)OC4=O)ccc21` [Example D1, 3,3′,4,4′-Biphenyltetracarboxylic dianhydride], the “light transmittance of obtained s-BPDA powder at 400 nm” value in data set [2] stood at 81%. Also, in data set [3], the “Solubility of used solvent at 25° C.” value worked out at 1.3 g/100 g.

Consider `O=C1OC(=O)c2cc(-c3ccc4c(c3)C(=O)OC4=O)ccc21` [Example D2, 3,3′,4,4′-Biphenyltetracarboxylic dianhydride], for which, in data set [2], the “light transmittance of obtained s-BPDA powder at 400 nm” value is listed as 81%.

As to `O=C1OC(=O)c2cc(-c3ccc4c(c3)C(=O)OC4=O)ccc21` [Example D3, 3,3′,4,4′-Biphenyltetracarboxylic dianhydride], the “light transmittance of obtained s-BPDA powder at 400 nm” value in data set [2] stood at 82%. Besides, in data set [3], the “Solubility of used solvent at 25° C.” value was found to be 2.3 g/100 g.

As to `O=C1OC(=O)c2cc(-c3ccc4c(c3)C(=O)OC4=O)ccc21` [Example D4, 3,3′,4,4′-Biphenyltetracarboxylic dianhydride], in data set [2], the “light transmittance of obtained s-BPDA powder at 400 nm” value was determined as 78%.

For `O=C1OC(=O)c2cc(-c3ccc4c(c3)C(=O)OC4=O)ccc21` [Example D5, 3,3′,4,4′-Biphenyltetracarboxylic dianhydride], the “Solubility of used solvent at 25° C.” value in data set [3] is listed as 0.1 g/100 g.

Consider `O=C1OC(=O)c2cc(-c3ccc4c(c3)C(=O)OC4=O)ccc21` [Example D6, 3,3′,4,4′-Biphenyltetracarboxylic dianhydride], for which, in data set [3], the “Solubility of used solvent at 25° C.” value was determined as 0.4 g/100 g.

For `O=C1OC(=O)c2cc(-c3ccc4c(c3)C(=O)OC4=O)ccc21` [Example D7, 3,3′,4,4′-Biphenyltetracarboxylic dianhydride], in data set [2], the “light transmittance of obtained s-BPDA powder at 400 nm” value was 79%. The “Solubility of used solvent at 25° C.” value in data set [3] is 0.3 g/100 g. For `O=C1OC(=O)c2cc(-c3ccc4c(c3)C(=O)OC4=O)ccc21` [Example D8, 3,3′,4,4′-Biphenyltetracarboxylic dianhydride], the “light transmittance of obtained s-BPDA powder at 400 nm” value in data set [2] came to 91%. Consider `N[C@H]1CC[C@H](N)CC1` [Example E2, trans-1,4-diaminocyclohexane], for which the “Light Transmittance at 400 nm (trans-1,4-diaminocyclohexane powder)” value in data set [6] amounted to 96%. Take `O=C1OC(=O)c2c1cccc2-c1cccc2c1C(=O)OC2=O` [Example F1, 2,2′,3,3′-Biphenyltetracarboxylic dianhydride]: the “Solubility at 25° C.” value in data set [5] turned out to be 3.2 g/100 g. Besides, in data set [4], the “Light Transmittance at 400 nm (i-BPDA)” value was found to be 91%. In the same order, the values of `O=C1OC(=O)c2c1cccc2-c1cccc2c1C(=O)OC2=O` [Example F2, 2,2′,3,3′-Biphenyltetracarboxylic dianhydride] are 4.4 g/100 g and 92%. Taken in the same sequence, the figures for `O=C1OC(=O)c2c1cccc2-c1cccc2c1C(=O)OC2=O` [Example F3, 2,2′,3,3′-Biphenyltetracarboxylic dianhydride] were 6.8 g/100 g and 93%.

On to `O=C1OC(=O)c2c1cccc2-c1cccc2c1C(=O)OC2=O` [Example F4, 2,2′,3,3′-Biphenyltetracarboxylic dianhydride], for which the “Light Transmittance at 400 nm (i-BPDA)” value in data set [4] amounted to 93%.

Take `O=C1OC(=O)c2c1cccc2-c1cccc2c1C(=O)OC2=O` [Example F5, 2,2′,3,3′-Biphenyltetracarboxylic dianhydride]: the “Light Transmittance at 400 nm (i-BPDA)” value in data set [4] is recorded as 91%.

Take `O=C1OC(=O)c2c1cccc2-c1cccc2c1C(=O)OC2=O` [Example F6, 2,2′,3,3′-Biphenyltetracarboxylic dianhydride]: the “Light Transmittance at 400 nm (i-BPDA)” value in data set [4] was 95%.

In the case of `O=C1OC(=O)c2c1cccc2-c1cccc2c1C(=O)OC2=O` [Example F7, 2,2′,3,3′-Biphenyltetracarboxylic dianhydride], the “Light Transmittance at 400 nm (i-BPDA)” value in data set [4] is 89%. For `CN1CCCC1=O` [NMP (99.62%), N-methyl-2-pyrrolidone], in data set [7], the “Light Transmittance at 400 nm after reflux (solvent)” value is recorded as 0.1%. Moreover, in data set [8], the “Light Transmittance at 400 nm (solvent)” value turned out to be 88%.

In the case of `CN1CCCC1=O` [NMP (99.96%), N-methyl-2-pyrrolidone], the “Light Transmittance at 400 nm after reflux (solvent)” value in data set [7] is 41%. In data set [8], the “Light Transmittance at 400 nm (solvent)” value is 89%. Turning to `N[C@H]1CC[C@H](N)CC1` [Referential Example E1, trans-1,4-diaminocyclohexane], the “Light Transmittance at 400 nm (trans-1,4-diaminocyclohexane powder)” value in data set [6] worked out at 86%. As to `N[C@H]1CC[C@H](N)CC1` [Referential Example E2, trans-1,4-diaminocyclohexane], the “Light Transmittance at 400 nm (trans-1,4-diaminocyclohexane powder)” value in data set [6] worked out at 89%.
